Reference: PubChem BioAssay AID2060898 (Molecular Pharmacology Branch, DTP, NCI, 2025)

System: 616215-338-R-J1-PDC complex spheroid viability
Assay: Anticancer human tumor 616215-338-R-J1-PDC patient-derived colon adenocarcinoma cell line growth inhibition [RAS]
Details: for IC50: curve of first compound; for viability, T/C: stronger effect = lower value
Summary of the method: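 Agents were tested in combination matrices in half-log decrements from a top concentration at or near clinical Cmax (10 microM if undetermined). Targets were multi-cell spheroids of tumour lines plus HUVEC and MSC stromal cells.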

[1] = second compound 0.000949 µM, first compound 0.0316 µM
[2] = second compound 0.000949 µM, first compound 0.1 µM
[3] = second compound 0.000949 µM, first compound 0.316 µM
[4] = second compound 0.000949 µM, first compound 1 µM
[5] = second compound 0.000949 µM, first compound 3.16 µM
[6] = second compound 0.000949 µM, first compound 10 µM
[7] = second compound 0.003 µM, first compound 0.0316 µM
[8] = second compound 0.003 µM, first compound 0.1 µM
[9] = second compound 0.003 µM, first compound 0.316 µM
[10] = second compound 0.003 µM, first compound 1 µM
[11] = second compound 0.003 µM, first compound 3.16 µM
[12] = second compound 0.003 µM, first compound 10 µM
[13] = second compound 0.00949 µM, first compound 0.0316 µM
[14] = second compound 0.00949 µM, first compound 0.1 µM
[15] = second compound 0.00949 µM, first compound 0.316 µM
[16] = second compound 0.00949 µM, first compound 1 µM
[17] = second compound 0.00949 µM, first compound 3.16 µM
[18] = second compound 0.00949 µM, first compound 10 µM
[19] = second compound 0.03 µM, first compound 0.0316 µM
[20] = second compound 0.03 µM, first compound 0.1 µM
[21] = second compound 0.03 µM, first compound 0.316 µM
[22] = second compound 0.03 µM, first compound 1 µM
[23] = second compound 0.03 µM, first compound 3.16 µM
[24] = second compound 0.03 µM, first compound 10 µM
[25] = second compound 0.0949 µM, first compound 0.0316 µM
[26] = second compound 0.0949 µM, first compound 0.1 µM
[27] = second compound 0.0949 µM, first compound 0.316 µM
[28] = second compound 0.0949 µM, first compound 1 µM
[29] = second compound 0.0949 µM, first compound 3.16 µM
[30] = second compound 0.0949 µM, first compound 10 µM
[31] = second compound 0.3 µM, first compound 0.0316 µM
[32] = second compound 0.3 µM, first compound 0.1 µM
[33] = second compound 0.3 µM, first compound 0.316 µM
[34] = second compound 0.3 µM, first compound 1 µM
[35] = second compound 0.3 µM, first compound 3.16 µM
[36] = second compound 0.3 µM, first compound 10 µM
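Note: spheroids exposed to agents for seven days before viability readout.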
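Throughout, for viability, T/C: 100% = DMSO vehicle control viability.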

## CC(C)NCC(C(=O)N1CCN(c2ncnc3c2C(C)CC3O)CC1)c1ccc(Cl)cc1 (stereo unspecified) + CCn1c(-c2cccnc2C(C)OC)c2c3cc(ccc31)N1CCOC(CC(NC(=O)C(C(C)C)N(C)C(=O)C3(F)CCN(C(=O)C#CC(C)(C)N(C)C)CC3)C(=O)N3CCCC(N3)C(=O)OCC(C)(C)C2)C1
Second compound 0.000949 µM
  IC50: 8.75 µM
Second compound 0.003 µM
  IC50: > 10 µM
Second compound 0.00949 µM
  IC50: > 10 µM
Second compound 0.03 µM
  IC50: 8.38 µM
Second compound 0.0949 µM
  IC50: 6.15 µM
Second compound 0.3 µM
  IC50: 3 µM
[1]
  viability, T/C: 106%
[2]
  viability, T/C: 106%
[3]
  viability, T/C: 102%
[4]
  viability, T/C: 113%
[5]
  viability, T/C: 90.7%
[6]
  viability, T/C: 44.7%
[7]
  viability, T/C: 98.1%
[8]
  viability, T/C: 95.9%
[9]
  viability, T/C: 94%
[10]
  viability, T/C: 98.4%
[11]
  viability, T/C: 97.4%
[12]
  viability, T/C: 50.9%
[13]
  viability, T/C: 112%
[14]
  viability, T/C: 101%
[15]
  viability, T/C: 93.5%
[16]
  viability, T/C: 98.5%
[17]
  viability, T/C: 85.5%
[18]
  viability, T/C: 51.1%
[19]
  viability, T/C: 99.7%
[20]
  viability, T/C: 98.8%
[21]
  viability, T/C: 105%
[22]
  viability, T/C: 111%
[23]
  viability, T/C: 96.2%
[24]
  viability, T/C: 41.4%
[25]
  viability, T/C: 118%
[26]
  viability, T/C: 108%
[27]
  viability, T/C: 111%
[28]
  viability, T/C: 97.2%
[29]
  viability, T/C: 73.9%
[30]
  viability, T/C: 32.4%
[31]
  viability, T/C: 116%
[32]
  viability, T/C: 116%
[33]
  viability, T/C: 108%
[34]
  viability, T/C: 85.6%
[35]
  viability, T/C: 48.1%
[36]
  viability, T/C: 28.6%

## CC(C)n1nc(-c2ccc3oc(N)nc3c2)c2c(N)ncnc21 + CCn1c(-c2cccnc2C(C)OC)c2c3cc(ccc31)N1CCOC(CC(NC(=O)C(C(C)C)N(C)C(=O)C3(F)CCN(C(=O)C#CC(C)(C)N(C)C)CC3)C(=O)N3CCCC(N3)C(=O)OCC(C)(C)C2)C1
Second compound 0.000949 µM
  IC50: > 0.1 µM
Second compound 0.003 µM
  IC50: > 0.1 µM
Second compound 0.00949 µM
  IC50: > 0.1 µM
Second compound 0.03 µM
  IC50: > 0.1 µM
Second compound 0.0949 µM
  IC50: > 0.1 µM
Second compound 0.3 µM
  IC50: 0.0662 µM
Second compound 0.000949 µM, first compound 0.000316 µM
  viability, T/C: 95.6%
Second compound 0.000949 µM, first compound 0.001 µM
  viability, T/C: 97.1%
Second compound 0.000949 µM, first compound 0.00316 µM
  viability, T/C: 108%
Second compound 0.000949 µM, first compound 0.01 µM
  viability, T/C: 96.9%
[1]
  viability, T/C: 112%
[2]
  viability, T/C: 72.2%
Second compound 0.003 µM, first compound 0.000316 µM
  viability, T/C: 102%
Second compound 0.003 µM, first compound 0.001 µM
  viability, T/C: 98.9%
Second compound 0.003 µM, first compound 0.00316 µM
  viability, T/C: 97.8%
Second compound 0.003 µM, first compound 0.01 µM
  viability, T/C: 105%
[7]
  viability, T/C: 116%
[8]
  viability, T/C: 74.1%
Second compound 0.00949 µM, first compound 0.000316 µM
  viability, T/C: 100%
Second compound 0.00949 µM, first compound 0.001 µM
  viability, T/C: 90.7%
Second compound 0.00949 µM, first compound 0.00316 µM
  viability, T/C: 101%
Second compound 0.00949 µM, first compound 0.01 µM
  viability, T/C: 111%
[13]
  viability, T/C: 111%
[14]
  viability, T/C: 66.6%
Second compound 0.03 µM, first compound 0.000316 µM
  viability, T/C: 95.5%
Second compound 0.03 µM, first compound 0.001 µM
  viability, T/C: 96.1%
Second compound 0.03 µM, first compound 0.00316 µM
  viability, T/C: 115%
Second compound 0.03 µM, first compound 0.01 µM
  viability, T/C: 106%
[19]
  viability, T/C: 102%
[20]
  viability, T/C: 64.1%
Second compound 0.0949 µM, first compound 0.000316 µM
  viability, T/C: 109%
Second compound 0.0949 µM, first compound 0.001 µM
  viability, T/C: 109%
Second compound 0.0949 µM, first compound 0.00316 µM
  viability, T/C: 113%
Second compound 0.0949 µM, first compound 0.01 µM
  viability, T/C: 110%
[25]
  viability, T/C: 108%
[26]
  viability, T/C: 55.8%
Second compound 0.3 µM, first compound 0.000316 µM
  viability, T/C: 106%
Second compound 0.3 µM, first compound 0.001 µM
  viability, T/C: 106%
Second compound 0.3 µM, first compound 0.00316 µM
  viability, T/C: 103%
Second compound 0.3 µM, first compound 0.01 µM
  viability, T/C: 82.1%
[31]
  viability, T/C: 71.8%
[32]
  viability, T/C: 38.9%

## C[C@@H](NC(=O)c1ncnc(N)c1Cl)c1ncc(C(=O)Nc2cc(C(F)(F)F)c(Cl)cn2)s1 + CCn1c(-c2cccnc2C(C)OC)c2c3cc(ccc31)N1CCOC(CC(NC(=O)C(C(C)C)N(C)C(=O)C3(F)CCN(C(=O)C#CC(C)(C)N(C)C)CC3)C(=O)N3CCCC(N3)C(=O)OCC(C)(C)C2)C1
Second compound 0.000949 µM
  IC50: > 10 µM
Second compound 0.003 µM
  IC50: > 10 µM
Second compound 0.00949 µM
  IC50: > 10 µM
Second compound 0.03 µM
  IC50: > 10 µM
Second compound 0.0949 µM
  IC50: > 10 µM
Second compound 0.3 µM
  IC50: 6.23 µM
[1]
  viability, T/C: 108%
[2]
  viability, T/C: 103%
[3]
  viability, T/C: 100%
[4]
  viability, T/C: 117%
[5]
  viability, T/C: 113%
[6]
  viability, T/C: 61.5%
[7]
  viability, T/C: 94.2%
[8]
  viability, T/C: 105%
[9]
  viability, T/C: 104%
[10]
  viability, T/C: 120%
[11]
  viability, T/C: 107%
[12]
  viability, T/C: 68%
[13]
  viability, T/C: 103%
[14]
  viability, T/C: 100%
[15]
  viability, T/C: 101%
[16]
  viability, T/C: 112%
[17]
  viability, T/C: 121%
[18]
  viability, T/C: 72.7%
[19]
  viability, T/C: 101%
[20]
  viability, T/C: 98.6%
[21]
  viability, T/C: 116%
[22]
  viability, T/C: 111%
[23]
  viability, T/C: 112%
[24]
  viability, T/C: 68.6%
[25]
  viability, T/C: 109%
[26]
  viability, T/C: 115%
[27]
  viability, T/C: 116%
[28]
  viability, T/C: 86.1%
[29]
  viability, T/C: 90%
[30]
  viability, T/C: 54.6%
[31]
  viability, T/C: 113%
[32]
  viability, T/C: 111%
[33]
  viability, T/C: 100%
[34]
  viability, T/C: 79.8%
[35]
  viability, T/C: 66.5%
[36]
  viability, T/C: 39.7%
